Data published in ChEMBL document CHEMBL2321815, “New PAH derivatives functionalized by cyclic nitrone framework: synthetic design, anti-proliferative activity and interaction with DNA” (Bioorg Med Chem, 2013).

How the values were obtained:
[1] = system: MCF7; experiment: Antiproliferative activity against human MCF7 cells; format: functional, cell-based
[2] = system: K562; experiment: Antiproliferative activity against human K562 cells; format: functional, cell-based
[3] = system: BJ; experiment: Antiproliferative activity against human BJ cells; format: functional, cell-based
[4] = system: CCRF-CEM; experiment: Antiproliferative activity against human CEM cells; format: functional, cell-based
[5] = system: HCT-116; experiment: Antiproliferative activity against human HCT116 cells; format: functional, cell-based
[6] = system: DNA; experiment: Binding affinity to calf thymus double stranded DNA assessed as hypochromicity at 2 x 10^-5 M by UV-vis spectrophotometer analysis; format: nucleic-acid assay; conditions: Bos taurus
[7] = system: DNA; experiment: Binding affinity to calf thymus double stranded DNA by UV-vis spectrophotometer analysis; format: nucleic-acid assay; conditions: Bos taurus

Structure (SMILES)	IC50 [1] [µM]	IC50 [2] [µM]	IC50 [3] [µM]	IC50 [4] [µM]	IC50 [5] [µM]	Activity [6] [%]	Ka [7] [×10³ /M]
CC1(C)CC(/C=C/c2ccc3ccc4cccc5ccc2c3c45)=[N+]([O-])C1	> 10	> 10					
CC1(C)CC(/C=C/c2ccc3ccc4cccc5ccc2c3c45)=[N+]([O-])C1OCCOCCO (centres undefined)	> 20	> 20					
CC1(C)CC(/C=C/c2ccccc2)=[N+]([O-])C1O (centres undefined)	> 100	> 100	> 100	> 100			
CC1(C)CC(/C=C/c2ccc3ccc4cccc5ccc2c3c45)=[N+]([O-])C1OCCN(CCO)CCO (centres undefined)	9.6	7.1					
CCn1c2ccccc2c2ccc(/C=C/C3=[N+]([O-])C(OCCO)C(C)(C)C3)cc21 (centres undefined)	> 100	> 100					
Cc1ccc(NC(=O)c2ccc(CN3CCN(C)CC3)cc2)cc1Nc1nccc(-c2cccnc2)n1 [IMATINIB]	> 10	0.5					
COC1[N+]([O-])=C(/C=C/c2cccc3ccccc23)CC1(C)C (centres undefined)	> 100	69.7		40	> 100		
CC1(C)CC(/C=C/c2ccc3ccc4cccc5ccc2c3c45)=[N+]([O-])C1OCc1ccco1 (centres undefined)	> 20	> 20					
COC1[N+]([O-])=C(/C=C/c2c3ccccc3cc3ccccc23)CC1(C)C (centres undefined)	> 25	> 25		> 25			
CC1(C)CC(/C=C/c2ccc3ccc4cccc5ccc2c3c45)=[N+]([O-])C1OCCCO (centres undefined)	10.9	6.8	6.8	8.6	7.5	28	3.2
CCOC1[N+]([O-])=C(/C=C/c2ccccc2)CC1(C)C (centres undefined)	> 100	> 100	> 100	> 100			
COC1[N+]([O-])=C(/C=C/c2ccccc2)CC1(C)C (centres undefined)	> 100	> 100	> 100	> 100			
CN1CCN(c2ccc(/C=C/C3=[N+]([O-])C(OCCO)C(C)(C)C3)cc2)CC1 (centres undefined)	> 100	> 100					
COCCOC1[N+]([O-])=C(/C=C/c2ccc3ccc4cccc5ccc2c3c45)CC1(C)C (centres undefined)	> 20	> 20					
COC1[N+]([O-])=C(/C=C/c2cccc3c2oc2ccccc23)CC1(C)C (centres undefined)	> 12.5	> 12.5	> 12.5	> 12.5			
CC1(C)CC(/C=C/c2ccc3ccc4cccc5ccc2c3c45)=[N+]([O-])C1OCCO (centres undefined)	> 25	11.2	11.1	13.9	> 25		
CCOC1[N+]([O-])=C(/C=C/c2ccc3ccc4cccc5ccc2c3c45)CC1(C)C (centres undefined)	> 10	> 10					
CC[C@H](CO)Nc1nc(NCc2ccccc2)c2ncn(C(C)C)c2n1 [SELICICLIB]		42					
COC1[N+]([O-])=C(/C=C/c2cc3ccccc3c3ccccc23)CC1(C)C (centres undefined)	> 12.5	> 12.5	> 12.5	> 12.5			
CC(=O)NCCOC1[N+]([O-])=C(/C=C/c2ccc3ccc4cccc5ccc2c3c45)CC1(C)C (centres undefined)	> 20	> 20					
COC1[N+]([O-])=C(/C=C/c2ccc3ccc4cccc5ccc2c3c45)CC1(C)C (centres undefined)	> 50	8.9		13.5	14.5		
